# Test results: patent US20120270884A1, “Methods of Treating Aneurysmal Dilatation, Blood Vessel Wall Weakness and Specifically Abdominal Aortic and Thoracic Aneurysm Using Matrix Metalloprotease-2 Inhibitors” (SYMPHONY EVOLUTION, INC., priority 2009, published 2012)
# Tests used:
# Assay type in all cases: biochemical
# MMP-3 (Stromelysin-1) = MMP-3 (Stromelysin-1) (Homo sapiens, UniProt P08254); assay: In vitro metalloprotease inhibition, MMP-3
# Source text: (§1) Blank cells indicate lack of data only.
# [1] = molecular target: T1, MMP-2 (72 kDa gelatinase, gelatinase A) (Homo sapiens, UniProt P08253); assay: In vitro metalloprotease inhibition, MMP-2
# T1 sequence (P08253 110-660): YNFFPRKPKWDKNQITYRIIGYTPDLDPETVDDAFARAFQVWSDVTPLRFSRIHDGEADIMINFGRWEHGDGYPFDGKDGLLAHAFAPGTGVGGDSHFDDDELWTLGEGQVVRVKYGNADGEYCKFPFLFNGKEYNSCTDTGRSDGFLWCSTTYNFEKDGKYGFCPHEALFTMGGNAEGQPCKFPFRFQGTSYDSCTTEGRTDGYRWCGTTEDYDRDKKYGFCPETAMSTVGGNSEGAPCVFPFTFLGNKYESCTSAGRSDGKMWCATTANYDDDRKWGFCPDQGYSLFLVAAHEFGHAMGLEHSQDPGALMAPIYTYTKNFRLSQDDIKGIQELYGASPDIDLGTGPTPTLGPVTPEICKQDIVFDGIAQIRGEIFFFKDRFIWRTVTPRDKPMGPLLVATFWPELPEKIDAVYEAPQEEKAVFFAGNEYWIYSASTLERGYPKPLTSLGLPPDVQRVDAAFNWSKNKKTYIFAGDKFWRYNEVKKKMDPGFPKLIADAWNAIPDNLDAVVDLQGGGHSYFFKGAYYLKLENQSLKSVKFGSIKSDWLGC
# [2] = molecular target: T2, MMP-1 (Fibroblast collagenase) (Homo sapiens, UniProt P03956); assay: In vitro metalloprotease inhibition, MMP-1
# T2 sequence (P03956 100-469): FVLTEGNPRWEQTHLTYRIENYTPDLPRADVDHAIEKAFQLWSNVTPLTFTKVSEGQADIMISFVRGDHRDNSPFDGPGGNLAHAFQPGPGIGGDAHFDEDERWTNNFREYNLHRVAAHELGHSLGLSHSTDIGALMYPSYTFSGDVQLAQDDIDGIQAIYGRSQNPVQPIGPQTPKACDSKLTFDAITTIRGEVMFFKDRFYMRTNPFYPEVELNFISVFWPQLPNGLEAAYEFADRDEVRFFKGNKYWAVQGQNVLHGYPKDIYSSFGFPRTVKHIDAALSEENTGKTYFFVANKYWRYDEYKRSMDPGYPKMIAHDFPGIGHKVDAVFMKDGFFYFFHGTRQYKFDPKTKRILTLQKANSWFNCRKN
# Source text: as §1
# MMP-13 (collagenase-3) = MMP-13 (collagenase-3) (Homo sapiens, UniProt P45452); assay: In vitro metalloprotease inhibition, MMP-13
# Sequence of MMP-3 (Stromelysin-1) (P08254 100-477, species assumed): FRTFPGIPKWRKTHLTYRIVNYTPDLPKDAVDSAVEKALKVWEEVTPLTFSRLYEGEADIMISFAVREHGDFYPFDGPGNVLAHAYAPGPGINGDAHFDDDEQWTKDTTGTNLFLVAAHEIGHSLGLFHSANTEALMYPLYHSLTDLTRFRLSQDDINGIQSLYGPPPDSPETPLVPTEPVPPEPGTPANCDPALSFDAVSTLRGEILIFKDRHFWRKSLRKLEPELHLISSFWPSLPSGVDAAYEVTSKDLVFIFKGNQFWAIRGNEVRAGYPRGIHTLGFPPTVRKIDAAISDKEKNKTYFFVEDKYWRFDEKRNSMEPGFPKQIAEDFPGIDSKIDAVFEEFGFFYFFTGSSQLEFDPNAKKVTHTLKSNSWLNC
SMILES,IC50 (MMP-3 (Stromelysin-1)),IC50 [1],IC50 [2],IC50 (MMP-13 (collagenase-3))
CN1CCN(C(=O)NS(=O)(=O)N2CCN(S(=O)(=O)c3cc(F)c(Oc4ccc(Cl)cc4)c(F)c3)[C@@H](C(=O)NO)C2)CC1 [Entry 39],< 50 nM,< 50 nM,50 to 1000 nM,< 50 nM
N#Cc1ccc(Oc2ccc(S(=O)(=O)N3CCN(C(=O)N4CCOCC4)C[C@@H]3C(=O)NO)cc2F)cc1 [Entry 7],< 50 nM,< 50 nM,50 to 1000 nM,< 50 nM
COCCOC(=O)N1CCN(S(=O)(=O)c2ccc(Oc3ccc4c(c3)CCCC4)nc2)[C@@H](C(=O)NO)C1 [Entry 64],< 50 nM,< 50 nM,50 to 1000 nM,< 50 nM
O=C(NO)[C@H]1CN(C(=O)OCCN2CCCCC2)CCN1S(=O)(=O)c1cc(F)c(Oc2ccc(Cl)cc2)c(F)c1 [Entry 27],50 to 1000 nM,< 50 nM,1000 to 20000 nM,< 50 nM
COCCOC(=O)N1CCN(S(=O)(=O)c2ccc(Oc3ccc(F)cc3)c(F)c2)[C@@H](C(=O)NO)C1 [Entry 3],1000 to 20000 nM,< 50 nM,50 to 1000 nM,< 50 nM
O=C(NO)[C@H]1CN(C(=O)N2CCOCC2)CCN1S(=O)(=O)c1ccc(-c2cccc(F)c2)nc1 [Entry 58],50 to 1000 nM,< 50 nM,50 to 1000 nM,< 50 nM
O=C(NO)[C@H]1CN(C(=O)c2ccc(-c3ccccc3)cc2)CCN1S(=O)(=O)c1cc(F)c(Oc2ccc(Cl)cc2)c(F)c1 [Entry 51],1000 to 20000 nM,50 to 1000 nM,1000 to 20000 nM,50 to 1000 nM
CCOC(=O)N1CCN(CCS(=O)(=O)N2CCN(S(=O)(=O)c3cc(F)c(Oc4ccc(Cl)cc4)c(F)c3)[C@@H](C(=O)NO)C2)CC1 [Entry 56],50 to 1000 nM,< 50 nM,1000 to 20000 nM,< 50 nM
CN(C)c1cccc2c(S(=O)(=O)N3CCN(S(=O)(=O)c4cc(F)c(Oc5ccc(Cl)cc5)c(F)c4)[C@@H](C(=O)NO)C3)cccc12 [Entry 60],1000 to 20000 nM,< 50 nM,> 20000 nM,< 50 nM
O=C(NO)[C@H]1CN(C(=O)NCCN2CCCC2)CCN1S(=O)(=O)c1cc(F)c(Oc2ccc(Cl)cc2)c(F)c1 [Entry 17],50 to 1000 nM,< 50 nM,1000 to 20000 nM,< 50 nM
COCCOC(=O)N1CCN(S(=O)(=O)c2ccc(Oc3ccc(F)cc3)nc2)[C@@H](C(=O)NO)C1 [Entry 65],< 50 nM,< 50 nM,< 50 nM,< 50 nM
O=C(NO)[C@H]1CN(C(=O)OCc2ccccc2)CCN1S(=O)(=O)c1cc(F)c(Oc2ccc(Cl)cc2)c(F)c1 [Entry 32],50 to 1000 nM,< 50 nM,1000 to 20000 nM,< 50 nM
CCOC(=O)N1CCN(CC(=O)N2CCN(S(=O)(=O)c3cc(F)c(Oc4ccc(Cl)cc4)c(F)c3)[C@@H](C(=O)NO)C2)CC1 [Entry 23],1000 to 20000 nM,< 50 nM,> 20000 nM,< 50 nM
O=C(NO)[C@H]1CN(C(=O)OCCN2CCCC2)CCN1S(=O)(=O)c1cc(F)c(Oc2ccc(Cl)cc2)c(F)c1 [Entry 18],50 to 1000 nM,< 50 nM,> 20000 nM,< 50 nM
COCCOC(=O)N1CCN(S(=O)(=O)c2cc(F)c(Oc3ccccc3)c(F)c2)[C@@H](C(=O)NO)C1 [Entry 40],50 to 1000 nM,< 50 nM,1000 to 20000 nM,< 50 nM
CN(C)c1ccc2c(S(=O)(=O)N3CCN(S(=O)(=O)c4cc(F)c(Oc5ccc(Cl)cc5)c(F)c4)[C@@H](C(=O)NO)C3)cccc2c1 [Entry 49],50 to 1000 nM,< 50 nM,> 20000 nM,< 50 nM
CN1CCN(CCS(=O)(=O)N2CCN(S(=O)(=O)c3cc(F)c(Oc4ccc(Cl)cc4)c(F)c3)[C@@H](C(=O)NO)C2)CC1 [Entry 55],50 to 1000 nM,< 50 nM,1000 to 20000 nM,< 50 nM
O=C(NO)[C@H]1CN(C(=O)N2CCOCC2)CCN1S(=O)(=O)c1ccc(Oc2ccc(Cl)cc2)c(F)c1 [Entry 6],< 50 nM,< 50 nM,50 to 1000 nM,< 50 nM
O=C(NO)[C@H]1CN(C(=O)N2CCOCC2)CCN1S(=O)(=O)c1ccc(Oc2ccc(F)cc2)c(F)c1 [Entry 8],< 50 nM,< 50 nM,50 to 1000 nM,< 50 nM
O=C(NO)[C@H]1CN(S(=O)(=O)CCN2CCOCC2)CCN1S(=O)(=O)c1cc(F)c(Oc2ccc(Cl)cc2)c(F)c1 [Entry 57],1000 to 20000 nM,50 to 1000 nM,> 20000 nM,50 to 1000 nM

# The remaining lines, values ahead:
IC50 (MMP-3 (Stromelysin-1)),IC50 [1],IC50 [2],IC50 (MMP-13 (collagenase-3)),SMILES
50 to 1000 nM,< 50 nM,> 20000 nM,< 50 nM,CCCCCCC(=O)N1CCN(S(=O)(=O)c2cc(F)c(Oc3ccc(Cl)cc3)c(F)c2)[C@@H](C(=O)NO)C1 [Entry 43]
1000 to 20000 nM,< 50 nM,> 20000 nM,50 to 1000 nM,O=C(NO)[C@H]1CN(CC(=O)N2CCCC2)CCN1S(=O)(=O)c1cc(F)c(Oc2ccc(Cl)cc2)c(F)c1 [Entry 21]
50 to 1000 nM,< 50 nM,> 20000 nM,< 50 nM,O=C(NO)[C@H]1CN(C(=O)Cc2cccnc2)CCN1S(=O)(=O)c1cc(F)c(Oc2ccc(Cl)cc2)c(F)c1 [Entry 47]
1000 to 20000 nM,< 50 nM,1000 to 20000 nM,< 50 nM,O=C(NO)[C@H]1CN(C(=O)Cc2ccncc2)CCN1S(=O)(=O)c1cc(F)c(Oc2ccc(Cl)cc2)c(F)c1 [Entry 52]
1000 to 20000 nM,< 50 nM,> 20000 nM,50 to 1000 nM,CCCC(CCC)C(=O)N1CCN(S(=O)(=O)c2cc(F)c(Oc3ccc(Cl)cc3)c(F)c2)[C@@H](C(=O)NO)C1 [Entry 44]
50 to 1000 nM,< 50 nM,1000 to 20000 nM,< 50 nM,CN1CCC(OC(=O)N2CCN(S(=O)(=O)c3cc(F)c(Oc4ccc(Cl)cc4)c(F)c3)[C@@H](C(=O)NO)C2)CC1 [Entry 22]
50 to 1000 nM,< 50 nM,1000 to 20000 nM,< 50 nM,O=C(NO)[C@H]1CN(C(=O)C(=O)N2CCCCC2)CCN1S(=O)(=O)c1cc(F)c(Oc2ccc(Cl)cc2)c(F)c1 [Entry 35]
> 20000 nM,< 50 nM,> 20000 nM,< 50 nM,CN1CCN(S(=O)(=O)c2cc(F)c(Oc3ccc(F)cc3)c(F)c2)[C@@H](C(=O)NO)C1 [Entry 14]
50 to 1000 nM,< 50 nM,1000 to 20000 nM,< 50 nM,O=C(CCl)NC(=O)N1CCN(S(=O)(=O)c2cc(F)c(Oc3ccc(Cl)cc3)c(F)c2)[C@@H](C(=O)NO)C1 [Entry 33]
1000 to 20000 nM,< 50 nM,1000 to 20000 nM,< 50 nM,COCCOC(=O)N1CCN(S(=O)(=O)c2cc(F)c(Oc3ccc(F)cc3)c(F)c2)[C@@H](C(=O)NO)C1 [Entry 10]
50 to 1000 nM,< 50 nM,> 20000 nM,< 50 nM,CNC(=O)CN1CCN(S(=O)(=O)c2cc(F)c(Oc3ccc(Cl)cc3)c(F)c2)[C@@H](C(=O)NO)C1 [Entry 19]
50 to 1000 nM,< 50 nM,1000 to 20000 nM,< 50 nM,COCCN1CCN(S(=O)(=O)c2cc(F)c(Oc3ccc(Cl)cc3)c(F)c2)[C@@H](C(=O)NO)C1 [Entry 29]
1000 to 20000 nM,< 50 nM,1000 to 20000 nM,1000 to 20000 nM,CC(C)(C)OC(=O)N1CCN(S(=O)(=O)c2cc(F)c(Oc3ccc(F)cc3)c(F)c2)[C@@H](C(=O)NO)C1 [Entry 9]
1000 to 20000 nM,50 to 1000 nM,> 20000 nM,> 20000 nM,O=C(NO)[C@H]1CNCCN1S(=O)(=O)c1cc(F)c(Oc2ccc(F)cc2)c(F)c1 [Entry 11]
1000 to 20000 nM,< 50 nM,> 20000 nM,< 50 nM,CN1CCN(CC(=O)N2CCN(S(=O)(=O)c3cc(F)c(Oc4ccc(Cl)cc4)c(F)c3)[C@@H](C(=O)NO)C2)CC1 [Entry 24]
1000 to 20000 nM,50 to 1000 nM,> 20000 nM,50 to 1000 nM,O=C(O)CN1CCN(S(=O)(=O)c2cc(F)c(Oc3ccc(Cl)cc3)c(F)c2)[C@@H](C(=O)NO)C1 [Entry 63]
1000 to 20000 nM,< 50 nM,> 20000 nM,< 50 nM,CN1CCN(C(=O)N2CCN(S(=O)(=O)c3cc(F)c(Oc4ccc(Cl)cc4)c(F)c3)[C@@H](C(=O)NO)C2)CC1 [Entry 16]
